Among the data in a melting point compilation (Tetko et al.; mined from patent text by program, amines drawn as free bases though some values may be those of a salt) are melting point values, retold here.

The melting point is the temperature of the solid-liquid transition.

`CNc1nc(-c2cccc(NCc3ccccc3)c2)c2cc(OC)c(OC)cc2n1`: the melting point lay within 146 to 148 °C.
`c1ccc2c(c1)CC(CCN1CCN(c3cccc4[nH]ccc34)CC1)C2`: the melting point was in the range of 146 to 147 °C.
The compound `CCOC(=O)/C=C/c1ccc2oc(Cc3nc(-c4ccccc4)oc3C)cc2c1` showed a melting point of 150 to 151 °C.
On to `COC(=O)c1sc(-c2ccccc2)c(Br)c1O`, for which the melting point lay in the range of 85 to 87 °C.
On to `COc1ccc(CCC(=O)Nc2c(C)c(C)c3c(c2C)[C@@H](c2ccc(C)cc2)C(C)(C)O3)cc1`, for which the melting point is 170 to 172 °C.
Take `COC(=O)C=Cc1cc2c(nc1C)C(=Cc1ccccc1)CCC2`: the melting point lay in the range of 121 to 123 °C.
Compound `FC(F)(F)c1ccc(-c2cc(C(F)(F)F)n3cnc(-c4ccncc4)c3n2)cc1C(F)(F)F` yielded a melting point of 211 °C.
Regarding `O=C(O)C(=O)CC(=O)c1cccn1Cc1ccc(F)c(F)c1`, the melting point lay within 145 to 148 °C.
Compound `COP(=O)(OC)C(O)=Cc1ccccc1F` came in with a melting point of 71 to 73 °C.
With `CC(=O)SCC(=Cc1ccccc1)C(=O)NCCC(=O)OCc1ccccc1`, the melting point is 80 °C.
In turn, `CCCCCCCCCCN(O)C(=O)NCCCCCCC(=O)OC` came in with a melting point of 81 to 82 °C.
With `Cc1cc(C)c(Nc2nc(C)ncc2S(=O)(=O)c2ccc(-c3cccnc3)cc2)c(C)c1`, the melting point lay in the range of 190 to 192 °C.
As for `CC(C)(C)OC(=O)NCC(N)c1c[nH]c2cc(Br)ccc12` (centres undefined), the melting point came out at 80 °C.
With `CCOc1ccc2c(C)c(CCO)c(=O)oc2c1OCC`, the melting point lay in the range of 130 to 131 °C.
For `CCOC(=O)CCCCn1c(C)cn(N=Cc2cccnc2)c1=O`, the melting point was 74 to 76 °C.
Compound `CN1CCN(C2=N/C(=C\c3c[nH]c4ncc(-c5ccccc5)cc34)C(=O)N2)CC1` yielded a melting point of 304 °C.
The value for `O=S(=O)(NS(=O)(=O)OCC(F)(F)F)OCC(F)(F)F` was 55 to 58 °C; that for `C1=CC(c2ccccc2)(c2ccc(N3CCOCC3)cc2)Oc2cc(N3CCOCC3)c3ccccc3c21` (centres undefined) was 187 to 188 °C.
In turn, `O=C(Nc1ccc(CN2C(=O)[C@H]3CCC[C@H]3N(C(=O)CN3C(=O)c4ccccc4C3=O)c3ccccc32)cc1)OCc1ccccc1` (relative stereo) gave a melting point of 144 to 147 °C.
`FC(F)(F)c1ccc(-c2cc(Oc3ccc4cccnc4c3)ncn2)c(NCC2CCCCC2)c1` showed a melting point of 137 to 138 °C.
Regarding `Cc1cc(Cn2nc(C(F)(F)C(F)(F)F)nc2C(F)(F)F)ccc1NC(=O)c1cccc(Br)c1C(=O)N[C@@H](C)CS(C)(=O)=O`, the melting point fell in the range of 104 to 108 °C.
On to `N#Cc1ccc(C=Cc2ncn(CC(O)(Cn3cncn3)c3ccc(F)cc3F)n2)cc1` (centres undefined), for which the melting point was 189 to 191 °C.
Compound `CCOC(=O)c1cn(CC)c2nc(N3CCN(C(=O)OCC)CC3)c(F)cc2c1=O` had a melting point of 171 to 173 °C.
Consider `CC(=O)CC(C)c1ccc(-c2ccccc2)c(F)c1` (centres undefined), for which the melting point stood at 85 °C.
Consider `C[C@H](CNc1nc(Cl)nc2c1ncn2[C@@H]1O[C@H](CO)[C@@H](O)[C@H]1O)Oc1ccccc1`, for which the melting point fell in the range of 175 to 177 °C.
`CCc1c(C(=O)c2cc(C)cc(C)c2)n(CC2=CC(CO)C(CO)C2)c(=O)[nH]c1=O` (centres undefined) came in with a melting point of 79 to 80 °C.
The compound `Cc1c(-c2ccccc2Cl)n(-c2ccccc2)c(-c2ccccc2F)cc1=O` yielded a melting point of 182 to 183 °C.
In turn, `COC(=O)CCCCC(=O)Nc1ccc2c3c(n(CCCNC(=O)OC(C)(C)C)c(=O)c2c1)-c1ccccc1C3=O` returned a melting point of 143 to 145 °C.
The compound `CCSc1nc(-c2ccccc2)cc2nnc(C)n12` showed a melting point of 210 to 212 °C.
The value for `COC(=O)c1c(CNC(=O)c2ccc(C(=O)O)cc2)ccc2c1C(C)(C)CCC2(C)C` was 95 to 100 °C.
As to `O=[N+]([O-])c1cccc(CN(CCO)CCO)c1`, the melting point fell in the range of 71 to 72 °C.
Turning to `Cc1cc(C#N)cnc1C(=O)Nc1ccc(F)c([C@]2(C)CO[C@@](C)(C(F)(F)F)C(N)=N2)c1`, the melting point lay in the range of 101 to 102 °C.
For the compound `CN1CCCCC1CCn1nc(-c2c(-c3ccccc3)nn3ccccc23)ccc1=O` (centres undefined), the melting point was 114 to 116 °C.
As for `O=C(O)CCSC1c2ccccc2COc2ccc(OCc3ccc4ccc(OC(F)F)cc4n3)cc21` (centres undefined), the figure is 180 to 184 °C.
`CCCCCCOC(=O)C(=O)Nc1cc(C#N)cc(NC(=O)C(=O)OCCCCCC)c1Cl` showed a melting point of 82 to 84 °C.
Consider `CCOC(=O)c1cc2ccc3c(c2cc1OCC)OC(n1cccc1)=C(C#N)C3c1cccc([N+](=O)[O-])c1` (centres undefined), for which the melting point is 202 to 203 °C.
Compound `COc1cc(C)cc2nc(SCc3ccccc3)nn12` gave a melting point of 85 to 87 °C.
In turn, `O=C1Nc2ccccc2C(c2ccccc2)CC1Br` (centres undefined) returned a melting point of 191 to 192 °C.
Turning to `Cc1oc(-c2ccco2)nc1COc1ccc(COc2ncccc2C=O)cc1`, the melting point lay in the range of 109 to 110 °C.
On to `O=C1c2ccccc2C(=O)c2c1cccc2N1CCNCC1`, for which the melting point came out at 190 °C.
As for `NC(=O)NN=Cc1c(-c2ccccc2)nn2ccccc12`, the figure is 221 to 222 °C; as for `CC(=O)ON1C(C)(C)CC(OC(=O)c2ccccc2C(=O)OC2CC(C)(C)N(OC(C)=O)C(C)(C)C2)CC1(C)C`, 172 to 175 °C; as for `CCc1c(-c2ccc(O)cc2)c2c(COCCCCCN3CCCCC3)cc3c(O)ccc1n32`, 120 to 121 °C.
`COc1ccc2c(c1)C(c1ccc(Cl)cc1)=NC(CC(=O)NC1CCCCC1)c1nnc(C)n1-2` (centres undefined) returned a melting point of over 260 °C.
Turning to `C=CCOc1cccc(-n2cnc(C(=O)OCC)c2)c1`, the melting point lay within 53 to 55 °C.
The compound `Brc1c(NC2=NCCN2)ccc2c1NCCN2` came in with a melting point of 218 to 220 °C.
For `CCN(Cc1ccccc1)C(=O)Cc1c(-c2ccc(Cl)c(Cl)c2)nc2cc(C)ccn12`, the melting point is 180 to 182 °C.
Consider `O=C1CCCc2c1ccc(O)c2CCc1ccccc1`, for which the melting point was 185 to 188 °C.
As to `Brc1ccccc1Sc1nc2ccccc2n2cncc12`, the melting point fell in the range of 191 to 192 °C.
Regarding `COc1ccc2occ(N)c(=O)c2c1`, the melting point lay within 98 to 100 °C.
As to `COc1ccc(CNc2nnc(N3CCC(CCO)CC3)c3ccc(Cl)cc23)cc1Cl`, the melting point is 153 to 155 °C.
Compound `CCCCOc1cc(/C=C(\OCC)C(=O)O)ccc1OCCc1ccc(OCC)c(Cl)c1` returned a melting point of 109 °C.
The compound `CS(=O)(=O)c1ccc(-c2cnn(CC(F)(F)F)c(=O)c2N2CCCCC2)cc1` came in with a melting point of 160 to 161 °C.
Compound `Cc1ccccc1-c1c(NC(=O)C=Cc2ccc(O)c(O)c2)c(=O)oc2cc3c(cc12)CCC3` displayed a melting point of 295 to 297 °C.
Compound `CCSc1ccc(-c2ccccn2)c2c1C(=O)CC(C)C2` (centres undefined) had a melting point of 120 to 122 °C.
The value for `CCn1nc2c(N)nc3ccccc3c2c1CCCCN1C(=O)c2ccccc2C1=O` was 216 to 217 °C.
For the compound `O=C(Nc1ccc(C(=O)N2C[C@@H]3CCCN3C(=O)c3ccccc32)cc1)c1ccccc1-c1ccccc1`, the melting point was 233 to 235 °C.
`CC(C)=CCN1Cc2cccc3[nH]c(=S)n(c23)CC1C` (centres undefined) returned a melting point of 128 °C.
For `CC(=O)c1c(C)nc2c(OCc3c(Cl)ccc(S(=O)(=O)N4CCC[C@H]4C(=O)NCCCNC(=O)c4ccc(C=NN)cc4)c3Cl)cccn12`, the melting point was 158 to 160 °C.
`SC1=NCCN1Cc1ccccc1` yielded a melting point of 177 to 182 °C.
As for `O=[N+]([O-])c1ccc2sc3ccc(F)cc3c2c1`, the figure is 200 to 202 °C; as for `C=C(C)n1c(C)c(-c2ccc(F)cc2)c2cccnc21`, 84 to 87 °C.
Compound `CCCCc1oc2ccccc2c1-c1ncc(-c2ccc3c(Br)c(OCC#N)ccc3c2)o1` came in with a melting point of 144 to 146 °C.
In turn, `COC(=O)c1cc(C)sc1NC(=O)C(C)C` yielded a melting point of 63 to 65 °C.
For `CCN1CCCC1CNC(=O)Cc1ccc(-c2ccc3c(=O)c(C(=O)NC)c(C)n(CC)c3n2)s1` (centres undefined), the melting point was found to be 250 °C.
In turn, `CC(=O)c1c(Sc2cc(Cl)cc(Cl)c2)[nH]c2ccc(Cl)cc12` registered a melting point of 180 to 185 °C.
`Cc1nc(NC(=O)CCc2ccccc2)sc1C(=O)NCc1ccccc1` came in with a melting point of 63 to 65 °C.
With `COc1ccc2c(c1)c(Cc1cc(=O)n(-c3cccc(Cl)c3)[nH]1)c(C)n2C(=O)c1ccc(Cl)cc1`, the melting point fell in the range of 148 to 150 °C.
`Cc1ccc(C(=O)Nc2c(NC(=O)CN3CCN(CCO)CC3)ccc3c2C(=O)c2ccccc2C3=O)cc1` displayed a melting point of 210 to 211 °C.
`CC(=O)N1CCC(NC(=O)Nc2ccccc2CCc2cc(C(C)(C)C)c(O)c(C(C)(C)C)c2)CC1`: the melting point lay within 218 to 221 °C.
For the compound `O=c1cc2c(nn1-c1ccc(Cl)cc1)-c1ncccc1CC2`, the melting point lay in the range of 174 to 176 °C.
`CCc1cc2ccccn2c1C(=O)c1cc(Cl)c(O)c(Cl)c1` returned a melting point of 206 °C.
The value for `CCCCCCCCCCC[C@@H]1CC(=O)CC(=O)O1` was 82 to 85 °C; that for `COc1ccc(-c2nc3c(C(N)=O)cccc3n2C)cc1` was 289 to 292 °C.
`Cn1nc(-c2cc(C=O)c(Cl)cc2Cl)c(Cl)c1OC(F)F`: the melting point amounted to 138 °C.
With `COc1ccc(N2CCN(c3c(C)c(C)c4c(c3C)CC(C)(CN3CCCC3)O4)CC2)cc1` (centres undefined), the melting point fell in the range of 129 to 132 °C.
`Cc1ccc2c(n1)CC(c1ccccc1C)CC2=O` (centres undefined) came in with a melting point of 76 to 77 °C.
On to `CCNC(=O)Oc1cnn(C(C)(C)C)c1`, for which the melting point turned out to be 77 °C.
Regarding `Cn1nc(-c2ccccc2)c(N)c1-c1ccccc1`, the melting point was in the range of 80 to 81 °C.
For `CC(=CC(=O)NC(C)(C)C)OC(=O)c1cc(S(C)(=O)=O)c(Cl)cc1NCc1ccco1`, the melting point was in the range of 140 to 145 °C.
As for `CSC(=NCCSCc1ncccc1O)NC#N`, the melting point was in the range of 192 to 194 °C.
`CNc1c(NCCSCc2[nH]cnc2C)c(=O)c1=O` showed a melting point of 208 °C.
As to `CN(Cc1ccc(NC(=O)C2CCS(=O)(=O)c3ccc(OCc4ccc(F)cc4)cc3C2)cc1)C1CCOCC1` (centres undefined), the melting point is 232 to 234 °C.
Turning to `CC(C)(C)OC(=O)NC1COCCCC=CC2CC2(C(=O)NS(=O)(=O)C2CC2)NC(=O)C2CC(OC(=O)Nc3ccccc3Oc3ccccc3)CN2C1=O` (centres undefined), the melting point was in the range of 151 to 153 °C.
